Assay in series [1]: not given
This is another data set of the same source.

Assay in series [2]: not given
This is another data set of the same source.

Assay in series [3]: not given
This is another data set of the same source.

Assay in series [4]: not given
The source holds these as a separate data set.

Molecules are shown by their SMILES. ± gives the standard deviation of the reports.

Compound `*c1ccc(N(c2ccc(-c3ccc4c(c3)C(CCCCCCCC)(CCCCCCCC)c3cc(*)ccc3-4)cc2)c2ccc(C(C)CC)cc2)cc1` (repeat unit) came in with a glass transition temperature of 140.00 °C.

`*c1ccc2c(c1)C(CCCCCCCCCCCC)(CCCCCCCCCCCC)c1cc(*)ccc1-2` (repeat unit): the glass transition temperature was 16.00 °C.

In the case of `*c1ccc2c(c1)C(CCCCCCCC)(CCCCCCCC)c1cc(-c3sc(-c4ccc(-c5cc(CCCCCC)c(*)s5)c5nsnc45)cc3CCCCCC)ccc1-2` (repeat unit), the glass transition temperature turned out to be 79.00 °C.

The compound `*c1ccc(-c2ccc(-c3cc4c5c(c(*)cc6c5c3C(=O)N(CC(CCCCCCCC)CCCCCCCCCC)C6=O)C(=O)N(CC(CCCCCCCC)CCCCCCCCCC)C4=O)s2)s1` (repeat unit) came in with a glass transition temperature of 74.00 °C.

Turning to `*c1cc2c(OCC(CC)CCCC)c3sc(-c4sc(*)c5c(F)c(C(=O)OCC(CC)CCCC)sc45)cc3c(OCC(CC)CCCC)c2s1` (repeat unit), the glass transition temperature is 40.00 °C.

`*C=Cc1cc(OC)c(C=Cc2cc(OC)c(*)cc2OC)cc1OCC(CC)CCCC` (repeat unit): the glass transition temperature turned out to be 113.00 °C.

Turning to `*c1ccc(-c2ccc(OCCCCCC)c(-c3cc(*)ccc3OCCCCCC)c2)cc1` (repeat unit), the glass transition temperature was 117.00 °C.

`*c1ccc(-c2ccc(OCCCCCCCC)c(-c3cc(*)ccc3OCCCCCCCC)c2)cc1` (repeat unit) yielded a glass transition temperature of 87.00 °C.

Compound `*c1cc(CCCCCCCCCCCCCC)c(-c2sc(-c3cc4sc(*)cc4s3)cc2CCCCCCCCCCCCCC)s1` (repeat unit) returned a glass transition temperature of 5.00 °C.

In the case of `*c1ccc(-c2sc(-c3c(F)c(F)c(-c4cc(CC(CCCCCCCC)CCCCCCCCCC)c(-c5ccc(*)s5)s4)c4nsnc34)cc2CC(CCCCCCCC)CCCCCCCCCC)s1` (repeat unit), the glass transition temperature was 28.00 °C.

`*Sc1ccc2c(c1)C(=O)N(c1ccc(Oc3ccc(N4C(=O)c5cccc(*)c5C4=O)cc3)cc1)C2=O` (repeat unit): the glass transition temperature in series [1] came to 267.50 ± 8.4 °C.

Turning to `*c1nc(C(F)(F)F)nc(C(F)(OC(F)(F)C(F)(F)C(F)(F)C(F)(F)C(F)(F)C(F)(F)OC(*)(F)C(F)(F)F)C(F)(F)F)n1` (repeat unit) [Perfluoropolymer 1], in series [2], the glass transition temperature was -13.6 ± 0.7 °C.

The compound `*CC(*)(C)C(=O)OCC(CC)CC` (repeat unit) [Poly(2-ethylbutyl methacrylate) ] returned a glass transition temperature in series [2] of 10.4 ± 0.7 °C.

Compound `*CC(*)C(=O)OC(C)CCCCC` (repeat unit) [Poly(2-heptyl acrylate) ] registered a glass transition temperature in series [2] of -39 ± 1.4 °C.

On to `*CC(*)c1ccccc1CC` (repeat unit) [Poly(o-ethyl styrene) ], for which the glass transition temperature in series [2] worked out at 102 ± 1.4 °C.

In turn, `*CC(*)c1ccc(CO)cc1` (repeat unit) [Poly(p-hydroxymethyl styrene) ] yielded a glass transition temperature in series [2] of 139 ± 1.4 °C.

In turn, `*CC(*)OCCC` (repeat unit) [Poly(propyl vinyl ether)] returned a glass transition temperature in series [3] of -49 °C.

Compound `*CC(*)OC(=O)CCC` (repeat unit) [Poly(vinyl butyrate) ] displayed a glass transition temperature in series [2] of 2 ± 4.2 °C.

Take `*Oc1ccc(Oc2ccc(Oc3ccc4c(c3)C(=O)N(CCCCCCN3C(=O)c5ccc(*)cc5C3=O)C4=O)cc2)cc1` (repeat unit) [Polyetherimide 1 ]: in series [2], the glass transition temperature worked out at 126.4 ± 2.1 °C.

`*CC(*)OC(=O)C=Cc1ccccc1` (repeat unit) [poly(vinyl cinnamate)]: the glass transition temperature in series [4] was 77 °C.

Source of the values: the PolyMetriX glass transition set.
